Tests used:
Assay in all cases: Test D controlled growth environment herbicide test, pre- and postemergence
Assay type in all cases: in vivo
[1] = tested on: chamomile (scentless chamomile, Matricaria inodora)
Outline: (§1)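 Species sown in silt loam and sprayed preemergence, or grown in peat-based medium to 2–18 cm (1- to 4-leaf stage) and sprayed postemergence, with compounds in non-phytotoxic solvent plus surfactant. Visual injury scored versus controls after 14–21 d in a controlled environment, 0 (no effect) to 100 (complete control).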

[2] = tested on: blackgrass (Alopecurus myosuroides)
Outline: as §1

[3] = tested on: Russian thistle (Salsola kali)
Outline: as §1

[4] = tested on: chickweed (common chickweed, Stellaria media)
Outline: as §1

kochia (Kochia scoparia) = tested on: kochia (Kochia scoparia)
Outline: as §1

[5] = tested on: speedwell (bird's-eye speedwell, Veronica persica)
Outline: as §1

[6] = tested on: bromegrass, downy (downy bromegrass, Bromus tectorum)
Outline: as §1

[7] = tested on: ryegrass, Italian (Italian ryegrass, Lolium multiflorum)
Outline: as §1

[8] = tested on: lambsquarters (Chenopodium album)
Outline: as §1

[9] = tested on: windgrass (Apera spica-venti)
Outline: as §1

[10] = tested on: deadnettle (henbit deadnettle, Lamium amplexicaule)
Outline: as §1

[11] = tested on: wheat, winter (winter wheat, Triticum aestivum)
Outline: as §1

[12] = tested on: radish, wild (wild radish, Raphanus raphanistrum)
Outline: as §1

[13] = tested on: field violet (Viola arvensis)
Outline: as §1

[14] = Postemergence, 31 g ai/ha, scale 0 to 100 (0 no effect, 100 complete control)
[15] = Postemergence, 125 g ai/ha, visual rating on scale 0 (no effect) to 100 (complete control), 14 to 21 d
[16] = Postemergence, 250 g ai/ha, scale 0 to 100 (0 no effect, 100 complete control)
[17] = postemergence, 62 g ai/ha, scale 0 to 100, 0 no effect, 100 complete control
[18] = Preemergence, 62 g ai/ha, scale 0 to 100 (0 no effect, 100 complete control)
[19] = Preemergence, 125 g ai/ha, scale 0 to 100 (0 no effect, 100 complete control)
[20] = Preemergence, 250 g ai/ha, scale 0 to 100, 0 no effect, 100 complete control

Cc1nn(C)c(=O)c(-c2ccc(F)c3ccccc23)c1O [Compound 41]
80: Plant response rating, Chamomile [1, 15] | Plant response rating, Blackgrass [2, 19] | Blackgrass plant response rating [2, 20] | Plant response rating (scale of 0 to 100), Kochia (kochia (Kochia scoparia); Preemergence, 31 g ai/ha) | Plant response rating, Kochia (kochia (Kochia scoparia); [19]) | Plant response rating, Bromegrass, Downy [6, 20] | Ryegrass, Italian plant response rating [7, 14] | Plant response rating, Windgrass [9, 19] | Plant response rating, Deadnettle [10, 15] | Plant response rating, Radish, Wild [12, 17]
70: Plant response rating, Blackgrass [2, 15] | Plant response rating (scale of 0 to 100), Blackgrass ([2]; Preemergence, 31 g ai/ha) | Russian Thistle plant response rating [3, 14] | Plant response rating, Russian Thistle [3, 20] | Plant response rating, Russian Thistle [3, 17] | Plant response rating, Bromegrass, Downy [6, 19] | Lambsquarters plant response rating [8, 14] | Plant response rating (scale of 0 to 100), Windgrass ([9]; Preemergence, 31 g ai/ha)
90: Plant response rating (scale of 0 to 100), Chickweed ([4]; Preemergence, 31 g ai/ha) | Plant response rating, Ryegrass, Italian [7, 16] | Plant response rating, Deadnettle [10, 18] | Radish, Wild plant response rating [12, 14] | Plant response rating, Radish, Wild [12, 15] | Plant response rating, Field Violet [13, 15] | Plant response rating, Field Violet [13, 18] | Plant response rating, Field Violet [13, 17]
75: Chamomile plant response rating [1, 14] | Plant response rating, Chamomile [1, 17] | Plant response rating, Blackgrass [2, 16] | Plant response rating, Blackgrass [2, 18] | Plant response rating, Russian Thistle [3, 15] | Plant response rating, Russian Thistle [3, 16] | Plant response rating, Kochia (kochia (Kochia scoparia); [18]) | Plant response rating, Lambsquarters [8, 15] | Plant response rating, Windgrass [9, 16] | Plant response rating, Windgrass [9, 18] | Plant response rating, Wheat, Winter [11, 20]
100: Plant response rating, Chamomile [1, 16] | Plant response rating, Chickweed [4, 16] | Plant response rating, Kochia (kochia (Kochia scoparia); [16]) | Plant response rating, Kochia (kochia (Kochia scoparia); [20]) | Speedwell plant response rating [5, 14] | Plant response rating, Speedwell [5, 15] | Plant response rating, Speedwell [5, 16] | Plant response rating (scale of 0 to 100), Speedwell ([5]; Preemergence, 31 g ai/ha) | Plant response rating, Speedwell [5, 19] | Plant response rating, Speedwell [5, 20] | Plant response rating, Speedwell [5, 17] | Plant response rating, Ryegrass, Italian [7, 18] | Plant response rating, Ryegrass, Italian [7, 19] | Plant response rating, Ryegrass, Italian [7, 20] | Plant response rating, Lambsquarters [8, 18] | Plant response rating, Lambsquarters [8, 19] | Plant response rating, Lambsquarters [8, 20] | Plant response rating, Deadnettle [10, 16] | Plant response rating, Deadnettle [10, 19] | Plant response rating, Deadnettle [10, 20] | Plant response rating, Deadnettle [10, 17] | Plant response rating, Radish, Wild [12, 20] | Field Violet plant response rating [13, 14] | Plant response rating, Field Violet [13, 16] | Plant response rating, Field Violet [13, 19] | Plant response rating, Field Violet [13, 20]
40: Plant response rating, Russian Thistle [3, 19] | Windgrass plant response rating [9, 14]
55: Blackgrass plant response rating [2, 14] | Plant response rating, Bromegrass, Downy [6, 18] | Plant response rating, Windgrass [9, 17]
35: Plant response rating, Bromegrass, Downy [6, 15] | Plant response rating (scale of 0 to 100), Deadnettle ([10]; Preemergence, 31 g ai/ha) | Plant response rating, Wheat, Winter [11, 16]
98: Chickweed plant response rating [4, 14] | Plant response rating, Chickweed [4, 17]
95: Plant response rating, Chickweed [4, 15] | Plant response rating, Chickweed [4, 18] | Plant response rating, Chickweed [4, 19] | Plant response rating, Chickweed [4, 20] | Plant response rating, Kochia (kochia (Kochia scoparia); [17]) | Plant response rating, Speedwell [5, 18] | Plant response rating (scale of 0 to 100), Ryegrass, Italian ([7]; Preemergence, 31 g ai/ha) | Plant response rating, Windgrass [9, 20] | Plant response rating, Radish, Wild [12, 16] | Plant response rating, Radish, Wild [12, 19] | Plant response rating (scale of 0 to 100), Field Violet ([13]; Preemergence, 31 g ai/ha)
65: Plant response rating, Blackgrass [2, 17] | Plant response rating, Lambsquarters [8, 17]
45: Plant response rating, Bromegrass, Downy [6, 16] | Plant response rating, Wheat, Winter [11, 19]
25: Plant response rating (scale of 0 to 100), Russian Thistle ([3]; Preemergence, 31 g ai/ha) | Plant response rating (scale of 0 to 100), Lambsquarters ([8]; Preemergence, 31 g ai/ha) | Plant response rating, Wheat, Winter [11, 15] | Plant response rating (scale of 0 to 100), Radish, Wild ([12]; Preemergence, 31 g ai/ha)
60: Plant response rating, Windgrass [9, 15]
20: Plant response rating, Russian Thistle [3, 18] | Plant response rating, Bromegrass, Downy [6, 17] | Plant response rating, Wheat, Winter [11, 18] | Plant response rating, Wheat, Winter [11, 17]
50: Plant response rating (scale of 0 to 100), Bromegrass, Downy ([6]; Preemergence, 31 g ai/ha)
85: Kochia plant response rating (kochia (Kochia scoparia); [14]) | Plant response rating, Kochia (kochia (Kochia scoparia); [15]) | Plant response rating, Ryegrass, Italian [7, 15] | Plant response rating, Ryegrass, Italian [7, 17] | Plant response rating, Lambsquarters [8, 16] | Deadnettle plant response rating [10, 14] | Plant response rating, Radish, Wild [12, 18]
10: Bromegrass, Downy plant response rating [6, 14] | Wheat, Winter plant response rating [11, 14] | Plant response rating (scale of 0 to 100), Wheat, Winter ([11]; Preemergence, 31 g ai/ha)
